Reference: US10538567B2, “Compounds as peptidic trigonal GLP1/glucagon/GIP receptor agonists” (priority 2016, dated 2020)
Numbered stars: 1 amine (or outer) side, 2 acyl side, 3 side chain; on linkers, the order of the positions; unused ones are H or OH. Square brackets hold non-standard residues; d marks the D form. Side chains are listed from the residue outwards. Peptide text beside a SMILES is read from it. * marks the point of attachment. γGlu = O=C(O)[C@H](CCC(=O)[*:2])N[*:1]; Palmitoyl = CCCCCCCCCCCCCCCC(=O)*; Aib = CC(C)(N)C(=O)O

Tests used:
human GIP receptor = biological target: T1, human GIP receptor (Homo sapiens, UniProt P48546); assay: cAMP response (HTRF) of HEK-293 cells stably expressing human GIP receptor; format: cell-based; settings: Table 8; read-out: EC50 hGIP R
T1 construct: expressed in transfected cells; host or cells: HEK-293
T1 sequence (P48546 22-466): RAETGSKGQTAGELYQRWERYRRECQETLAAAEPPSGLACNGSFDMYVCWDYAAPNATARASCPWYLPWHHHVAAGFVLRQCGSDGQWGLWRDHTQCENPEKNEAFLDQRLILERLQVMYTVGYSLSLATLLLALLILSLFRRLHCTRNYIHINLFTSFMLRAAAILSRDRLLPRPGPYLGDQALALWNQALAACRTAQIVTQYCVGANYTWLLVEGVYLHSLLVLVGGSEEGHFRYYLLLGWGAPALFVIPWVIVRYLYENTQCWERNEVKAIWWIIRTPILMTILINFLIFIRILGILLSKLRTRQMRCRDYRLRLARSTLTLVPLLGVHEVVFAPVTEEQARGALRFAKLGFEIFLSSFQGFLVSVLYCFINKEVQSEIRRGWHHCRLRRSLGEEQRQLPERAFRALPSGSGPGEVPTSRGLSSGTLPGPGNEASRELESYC
How it was run: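 HEK-293 cells stably expressing human GIP receptor were incubated with compound for 30 min at room temperature in HBSS/20 mM HEPES/0.1% BSA with 2 mM IBMX. cAMP was measured by HTRF (665/616 nm ratio) after 1 h with detection reagents in lysis buffer; EC50 is the concentration giving 50% of maximal response.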

male ApoE KO mice = assay: Anti-atherosclerotic activity in ApoE KO mice, 16 weeks minipump infusion; format: in vivo; settings: 150 μg/kg/day
From the text: The apolipoprotein E (ApoE) knockout (KO) mouse model is widely used to investigate atherosclerosis. These mice spontaneously develop atherosclerotic lesions that are morphologically similar to those observed in humans (Meir & Leitersdorf 2004, Arterioscler Thromb Vasc Biol 24: 1006-1014, Rosenfeld et al. 2000, Arterioscler Thromb Vasc Biol 20: 2587-2592).
Male ApoE KO mice (B.129P2-apoetm1Unc/J) were randomly allocated to control or treatment groups (N=15 per group); wild-type mice (C57BL6/J) received vehicle treatment and acted as a second, healthy control.
ApoE KO and wild-type mice received constant 16 weeks infusion using subcutaneous osmotic minipumps (ALZET™) filled with either vehicle (sterile acetate buffer, pH 4.5), Peptides SEQ ID NO. 6 & SEQ ID NO. 11 (150 μg/kg/day) or with Liraglutide (600 μg/kg/day). Body weight and food intake was monitored throughout the study on a weekly basis.
Blood samples for blood lipid analysis were drawn before treatment and at weeks 7 and 16 to analyze total cholesterol, low density lipoprotein (LDL) cholesterol and high density lipoprotein (HDL) cholesterol (not shown).
The aorta was dissected and aortic atherosclerotic plaque formation was measured as absolute and relative plaque area (% oilred stained area of total aortic surface area) using quantitative and automated image analysis.

CCCCCCCCCCCCCCCC(=O)N[C@@H](CCC(=O)N[C@@H](CCC(=O)NCCCC[C@H](NC(=O)[C@H](CC(C)C)NC(=O)[C@H](CCCCN)NC(=O)[C@H](CO)NC(=O)[C@H](CC(C)C)NC(=O)[C@H](CC(=O)O)NC(=O)[C@H](CO)NC(=O)[C@@H](NC(=O)[C@H](Cc1ccccc1)NC(=O)[C@@H](NC(=O)CNC(=O)[C@H](Cc1c[nH]cn1)NC(=O)C(C)(C)NC(=O)[C@@H](N)Cc1c[nH]cn1)[C@@H](C)O)[C@@H](C)O)C(=O)N[C@@H](CCC(=O)O)C(=O)N[C@@H](CCC(=O)O)C(=O)N[C@@H](CCC(N)=O)C(=O)N[C@@H](CCCNC(=N)N)C(=O)N[C@@H](CCC(N)=O)C(=O)NC(C)(C)C(=O)N[C@@H](CCC(=O)O)C(=O)N[C@@H](Cc1ccccc1)C(=O)N[C@H](C(=O)N[C@@H](CCC(=O)O)C(=O)N[C@@H](Cc1c[nH]c2ccccc12)C(=O)N[C@@H](CC(C)C)C(=O)N[C@@H](CCCCN)C(=O)N[C@@H](C)C(=O)N[C@H](C)C(=O)NCC(=O)N1CCC[C@H]1C(=O)N1CCC[C@H]1C(=O)N[C@@H](CO)C(=O)NC(C)(C)C(=O)N[C@@H](CCCCN)C(=O)N1CCC[C@H]1C(=O)N1CCC[C@H]1C(=O)N1CCC[C@H]1C(=O)N[C@@H](CCCCN)C(N)=O)[C@@H](C)CC)C(=O)O)C(=O)O [SEQ ID NO: 11, H-Aib-H-G-T-F-T-S-D-L-S-K-L-K[gGlu-gGlu-Palm]-E-E-Q-R-Q-Aib-E-F-I-E-W-L-K-A-dAla-G-P-P-S-Aib-K-P-P-P-K-NH2] (H-H[Aib]HGTFTSDLSKLK([γGlu-γGlu-Palmitoyl])EEQRQ[Aib]EFIEWLKA[dA]GPPS[Aib]KPPPK-NH2)
EC50 (human GIP receptor): 1.5 pM
reduction of atherosclerotic plaques relative to vehicle control (male ApoE KO mice; 4 months (16 weeks) s.c. minipump): 73%
LDL-cholesterol (male ApoE KO mice; 16 weeks): marked reduction
